The source of these data is patent publication US20240343732A1, “COMPOUNDS FOR DEGRADATION OF CYCLIN-DEPENDENT KINASE 7(CDK7)” (QURIENT CO., LTD., priority 2021, published 2024).

Bounds are passed on as bounds.

For one test, the target named is T1, CDK7 protein (Homo sapiens, UniProt P50613).
T1 construct: To verify endogenous CDK7 protein degradation; endogenous in cells; host or cells: A2780 (ECACC 93112519)
Nature of the test: Western blot assay for CDK7 protein degradation in A2780 cells.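 As to all read-outs here: A is DC50 up to 100 nM B is 100 to 1000 nM C is above 1000 nM.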 The conditions noted are these: 24 hours; for DC50: read-out: Compound concentration that caused 50% CDK7 protein degradation in A2780 cells (DC50). The test is classed as cell-based. Here is the method:
Human ovarian cancer cell line, A2780 (Cat #93112519) was obtained from ECACC. Cells were grown in RPMI-1640 media (Invitrogen, Cat #22400105) supplemented with 10% FBS (Hyclone, Cat #SH30084.03) and 1% penicillin/streptomycin (Hyclone, Cat #SV30010) and cultured at 37° C., 5% Co2 in a humidified chamber. All cell lines were routinely tested for mycoplasma.
To verify endogenous CDK7 protein degradation upon treatment of CDK7-specific degrader, the western blot assay was conducted a 24 hours' time period. 6×10^5 cells/well of A2780 cells were plated in 6-well plate. After 24 hours, the cells were treated with various concentrations of the compound corresponding range. DMSO solvent without compound served as a control and final DMSO concentration was not to exceed 0.1% of total volume. After 24 hours of incubation at 37° C., 5% Co2 incubator, cells were collected and lysed with 60 ul of lysis buffer. Collected lysates were incubated for 30 min on ice and collect supernatant through centrifugation at 12,000 rpm for 10 min at 4° C. The protein in lysates were quantified with BCA protein quantification kit (Pierce, Cat #23227) following manufacture's protocol. Cell lysates were diluted into 1 ug/ul of concentration with lysis buffer. 20 ug of protein was loaded to each well of 4˜12% Bis-Tris gel (Invitrogen, Cat #NP0336BOX) with MOPS running buffer (Invitrogen, Cat #NP0001). The proteins were transferred from gel to membrane and incubated with primary antibody as followed at 4° C. overnight; CDK7 (CST, Cat #2090S) and β-actin (Santa Cruz, Cat #sc-47778) 1:20,000. The signals were developed and acquired with ImageQuant™ LAS 4000.
(Immunoblotting shows a protein as a band on a membrane.)

A further test concerns the target T2, CDK1 (Homo sapiens, UniProt P06493).
T2 construct: His; purchased Invitrogen PR4768C
The test can be described thus: Binding assay (FRET, LanthaScreen Eu, Tracer236) for CDK1. The conditions noted are these: for IC50: read-out: CDK1 IC50 (enzyme binding assay). Background: TR-FRET usually uses a lanthanide donor and a delayed reading to cut background.

A further test deals with T3, CDK7/CycH/MNAT1 (Homo sapiens, UniProt P50613).
T3 construct: His; purchased Invitrogen PR6749B
Nature of the test: Binding assay (FRET, LanthaScreen Eu, Tracer236) for CDK7. As to conditions: read-out: CDK7 IC50 (enzyme binding assay).

The target of the next test is T4, CDK2 (Homo sapiens, UniProt P24941).
T4 construct: His; purchased Invitrogen PR4448B
The test can be described thus: Binding assay (FRET, LanthaScreen Eu, Tracer236) for CDK2. The conditions noted are these: for IC50: read-out: CDK2 IC50 (enzyme binding assay).

Another test has as its target T5, CDK5 (Homo sapiens, UniProt Q00535).
T5 construct: His; purchased Invitrogen PR8543B
The test can be described thus: Binding assay (FRET, LanthaScreen Eu, Tracer236) for CDK5. The conditions noted are these: for IC50: read-out: CDK5 IC50 (enzyme binding assay).

T3 sequence (P50613 whole entry): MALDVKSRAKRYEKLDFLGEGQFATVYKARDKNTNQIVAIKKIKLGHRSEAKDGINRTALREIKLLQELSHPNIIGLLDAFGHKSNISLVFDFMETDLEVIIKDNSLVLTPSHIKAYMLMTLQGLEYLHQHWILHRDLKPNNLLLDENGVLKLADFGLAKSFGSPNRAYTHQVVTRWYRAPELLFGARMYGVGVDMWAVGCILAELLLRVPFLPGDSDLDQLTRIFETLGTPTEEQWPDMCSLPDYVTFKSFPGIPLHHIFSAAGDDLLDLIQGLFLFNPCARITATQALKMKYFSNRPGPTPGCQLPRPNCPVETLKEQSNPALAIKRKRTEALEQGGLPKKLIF
T3 sequence (P51946 whole entry partner): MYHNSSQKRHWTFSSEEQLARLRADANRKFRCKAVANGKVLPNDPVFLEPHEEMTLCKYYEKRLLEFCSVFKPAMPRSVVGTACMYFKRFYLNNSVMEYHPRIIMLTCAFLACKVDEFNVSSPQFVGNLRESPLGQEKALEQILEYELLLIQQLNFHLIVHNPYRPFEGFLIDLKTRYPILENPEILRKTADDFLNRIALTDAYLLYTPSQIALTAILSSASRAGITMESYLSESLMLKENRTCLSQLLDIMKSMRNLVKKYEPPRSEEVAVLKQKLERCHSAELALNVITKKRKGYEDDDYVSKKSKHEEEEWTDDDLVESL
T3 sequence (P51948 whole entry partner): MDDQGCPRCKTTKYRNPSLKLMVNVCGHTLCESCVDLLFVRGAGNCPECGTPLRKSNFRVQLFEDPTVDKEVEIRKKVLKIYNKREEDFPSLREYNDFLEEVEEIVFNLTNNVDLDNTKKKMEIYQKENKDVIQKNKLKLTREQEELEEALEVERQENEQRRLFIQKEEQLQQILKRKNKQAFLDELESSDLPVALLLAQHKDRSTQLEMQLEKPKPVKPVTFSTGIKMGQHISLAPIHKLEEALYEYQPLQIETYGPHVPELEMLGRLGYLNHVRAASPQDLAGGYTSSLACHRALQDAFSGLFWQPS
T1 sequence (P50613 whole entry): as the sequence (P50613 whole entry) above
T2 sequence (P06493 whole entry): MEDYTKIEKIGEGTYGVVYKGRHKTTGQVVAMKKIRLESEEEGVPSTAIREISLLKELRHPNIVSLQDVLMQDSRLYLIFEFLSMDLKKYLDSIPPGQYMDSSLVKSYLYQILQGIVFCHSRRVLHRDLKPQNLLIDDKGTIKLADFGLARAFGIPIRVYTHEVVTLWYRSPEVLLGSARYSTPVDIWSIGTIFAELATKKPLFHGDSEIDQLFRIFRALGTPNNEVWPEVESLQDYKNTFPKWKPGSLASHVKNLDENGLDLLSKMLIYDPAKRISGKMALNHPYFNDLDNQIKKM
T2 sequence (P14635 whole entry partner): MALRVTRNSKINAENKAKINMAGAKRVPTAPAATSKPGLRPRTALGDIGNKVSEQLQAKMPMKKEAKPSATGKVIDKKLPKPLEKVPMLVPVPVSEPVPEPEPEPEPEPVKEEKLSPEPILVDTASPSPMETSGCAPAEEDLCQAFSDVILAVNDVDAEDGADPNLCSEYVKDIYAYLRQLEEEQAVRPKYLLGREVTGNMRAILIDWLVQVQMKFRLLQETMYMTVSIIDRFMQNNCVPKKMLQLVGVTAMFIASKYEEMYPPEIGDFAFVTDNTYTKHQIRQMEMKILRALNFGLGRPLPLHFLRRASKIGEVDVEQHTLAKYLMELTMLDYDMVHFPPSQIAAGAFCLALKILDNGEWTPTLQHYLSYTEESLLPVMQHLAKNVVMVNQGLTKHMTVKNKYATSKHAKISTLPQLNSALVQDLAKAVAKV
T5 sequence (Q00535 whole entry): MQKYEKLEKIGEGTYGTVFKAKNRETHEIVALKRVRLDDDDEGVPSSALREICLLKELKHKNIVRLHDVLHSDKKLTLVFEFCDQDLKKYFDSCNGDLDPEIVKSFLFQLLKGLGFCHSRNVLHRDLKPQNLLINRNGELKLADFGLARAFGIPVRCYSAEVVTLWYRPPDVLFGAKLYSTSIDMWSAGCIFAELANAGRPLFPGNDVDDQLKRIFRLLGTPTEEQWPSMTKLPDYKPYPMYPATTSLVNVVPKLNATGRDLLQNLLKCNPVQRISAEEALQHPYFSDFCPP
T5 sequence (Q15078 99-307 partner limits assumed): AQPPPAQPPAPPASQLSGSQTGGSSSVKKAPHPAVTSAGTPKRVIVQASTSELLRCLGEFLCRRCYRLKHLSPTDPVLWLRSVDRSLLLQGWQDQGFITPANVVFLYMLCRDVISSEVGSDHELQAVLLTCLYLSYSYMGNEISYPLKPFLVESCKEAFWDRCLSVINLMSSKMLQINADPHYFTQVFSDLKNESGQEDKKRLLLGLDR

By IC50 is commonly meant the concentration that inhibits the measured activity by half. Take `Cc1ncsc1-c1ccc(CNC(=O)[C@@H]2C[C@@H](O)CN2C(=O)[C@@H](NC(=O)C2(F)CC2)C(C)(C)C)c(OCCOCCOCCNc2ccc3c(-c4ccccc4CNc4nc(O[C@@H]5CCCNC5)nc5c(C(C)C)cnn45)nccc3c2)c1` [Compound 11]: the DC50 at CDK7 protein is at most 100 nM. For the same compound, at CDK1, the “CDK1/CDK7: Selectivity of CDK7 inhibition over CDK1 inhibition” value was “A (A indicates [fold] > 500)” and the IC50 is over 1000 nM. In addition, the IC50 at CDK7/CycH/MNAT1 was at most 100 nM. Moreover, on CDK2, the “CDK2/CDK7: Selectivity of CDK7 inhibition over CDK2 inhibition” value was “A (A indicates [fold] > 500)” and the 50% inhibitory concentration (IC50) is over 1000 nM. Moreover, at CDK5, the “CDK5/CDK7: Selectivity of CDK7 inhibition over CDK5 inhibition” value was “A (A indicates [fold] > 500)” and the IC50 was over 1000 nM.

On to `Cc1ncsc1-c1ccc(CNC(=O)[C@@H]2C[C@@H](O)CN2C(=O)[C@@H](NC(=O)C2(F)CC2)C(C)(C)C)c(OCCOCCOCCOCCOCCNc2ccc3c(-c4ccccc4CNc4nc(O[C@@H]5CCCNC5)nc5c(C(C)C)cnn45)nccc3c2)c1` [Compound 21], for which the DC50 on CDK7 protein was at most 100 nM. In addition, at CDK1, the “CDK1/CDK7: Selectivity of CDK7 inhibition over CDK1 inhibition” value is “A (A indicates [fold] > 500)” and the IC50 is over 1000 nM. The IC50 on CDK7/CycH/MNAT1 is at most 100 nM. Moreover, on CDK2, the “CDK2/CDK7: Selectivity of CDK7 inhibition over CDK2 inhibition” value is “A (A indicates [fold] > 500)” and the IC50 is over 1000 nM. Further, at CDK5, the “CDK5/CDK7: Selectivity of CDK7 inhibition over CDK5 inhibition” value was “A (A indicates [fold] > 500)” and the concentration for half-maximal inhibition (IC50) is over 1000 nM.

As to `CC(C)C[C@H](NC(=O)[C@@H](O)[C@H](N)Cc1ccccc1)C(=O)NCCOCCOCCNc1ccc2c(-c3ccccc3CNc3nc(O[C@@H]4CCCNC4)nc4c(C(C)C)cnn34)nccc2c1` [Compound 13], the DC50 on CDK7 protein was over 1000 nM. In addition, at CDK1, the “CDK1/CDK7: Selectivity of CDK7 inhibition over CDK1 inhibition” value was “A (A indicates [fold] > 500)” and the IC50 is over 1000 nM. Further, the IC50 at CDK7/CycH/MNAT1 was at most 100 nM. At CDK2, the “CDK2/CDK7: Selectivity of CDK7 inhibition over CDK2 inhibition” value was “A (A indicates [fold] > 500)” and the half-inhibitory concentration (IC50) was over 1000 nM. Besides, on CDK5, the “CDK5/CDK7: Selectivity of CDK7 inhibition over CDK5 inhibition” value is “A (A indicates [fold] > 500)” and the IC50 was over 1000 nM.

Turning to `CC(C)c1cnn2c(NCc3ccccc3-c3nccc4cc(NCCOCCOCCNC(=O)CNc5ccc6c(c5)CN(C5CCC(=O)NC5=O)C6=O)ccc34)nc(O[C@@H]3CCCNC3)nc12` (stereo partly drawn) [Compound 16], at CDK7 protein, the “Compound concentration that caused 50% CDK7 protein degradation in A2780 cells (DC50, nM)” value is “B or A” and the DC50 lay in the range of 100 to 1000 nM. On CDK1, the “CDK1/CDK7: Selectivity of CDK7 inhibition over CDK1 inhibition” value was “A (A indicates [fold] > 500)” and the half-inhibitory concentration (IC50) was over 1000 nM. For the same compound, at CDK7/CycH/MNAT1, the concentration for half-maximal inhibition (IC50) is at most 100 nM. Also, on CDK2, the “CDK2/CDK7: Selectivity of CDK7 inhibition over CDK2 inhibition” value was “A (A indicates [fold] > 500)” and the IC50 is over 1000 nM. Besides, at CDK5, the “CDK5/CDK7: Selectivity of CDK7 inhibition over CDK5 inhibition” value is “A (A indicates [fold] > 500)” and the IC50 was over 1000 nM.
